Where two headings read alike, the source gives them in different places. Bridge positions count the residues as written; N and C are the ends. Square brackets hold non-standard residues; d marks the D form. Peptide text beside a SMILES is read from it. hArg = N=C(N)NCCCC[C@H](N)C(=O)O Bounds are passed on as bounds.

Test [1] addresses T1, PPIA (Homo sapiens, UniProt P62937). Kind of test: KD determination of cyclic peptides derived from Formula (I). It counts as binding.
The target in test [2] is T1, PPIA. The conditions noted are these: read-out: KD, binds and sequesters cytosolic PPIA; cited from earlier work.
Test [3] deals with T2, CAPN1 (Mus musculus, UniProt O35350).
T2 construct: endogenous in cells; host or cells: HL-1 cardiomyocytes
T2 sequence (O35350 1-713): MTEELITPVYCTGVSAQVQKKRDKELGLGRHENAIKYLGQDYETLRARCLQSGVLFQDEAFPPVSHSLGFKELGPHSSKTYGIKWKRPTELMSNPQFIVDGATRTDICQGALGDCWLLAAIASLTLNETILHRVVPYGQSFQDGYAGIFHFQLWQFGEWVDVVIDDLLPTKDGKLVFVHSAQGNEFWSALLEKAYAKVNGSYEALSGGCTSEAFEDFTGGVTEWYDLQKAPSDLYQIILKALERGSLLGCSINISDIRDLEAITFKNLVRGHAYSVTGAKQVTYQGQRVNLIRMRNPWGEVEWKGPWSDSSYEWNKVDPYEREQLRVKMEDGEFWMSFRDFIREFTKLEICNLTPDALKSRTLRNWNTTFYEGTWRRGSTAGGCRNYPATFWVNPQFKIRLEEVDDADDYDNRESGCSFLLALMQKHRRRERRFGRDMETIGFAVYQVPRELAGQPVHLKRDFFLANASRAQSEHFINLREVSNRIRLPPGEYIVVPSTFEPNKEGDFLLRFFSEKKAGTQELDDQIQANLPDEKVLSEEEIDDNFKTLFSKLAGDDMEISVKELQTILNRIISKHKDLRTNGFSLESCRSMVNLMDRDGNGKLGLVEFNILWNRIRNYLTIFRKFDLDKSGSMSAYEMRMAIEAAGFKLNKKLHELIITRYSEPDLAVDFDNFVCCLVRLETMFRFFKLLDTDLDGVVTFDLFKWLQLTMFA
T2 sequence (O88456 1-268 partner): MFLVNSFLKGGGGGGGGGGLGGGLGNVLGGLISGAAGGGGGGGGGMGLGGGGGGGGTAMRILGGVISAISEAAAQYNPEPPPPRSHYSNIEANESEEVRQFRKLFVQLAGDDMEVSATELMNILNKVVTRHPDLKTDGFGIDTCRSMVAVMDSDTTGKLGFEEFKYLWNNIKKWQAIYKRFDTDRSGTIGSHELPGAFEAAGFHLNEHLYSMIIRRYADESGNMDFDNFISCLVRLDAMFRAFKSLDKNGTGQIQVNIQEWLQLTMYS
Kind of test: Calpain activity assay (Suc-LLVY-AMC cleavage) in HL-1 cells under Ca2+ overload. It is filed as cell-based. How it is done:
Calcium (Ca^2+) Overload Protocol: Rapid and sustained intracellular Ca^2+ overload was obtained by adding the Ca^2+-ionophore, calcimycin (1 μM), to HL-1 cells incubated for 10 min in HBS KV medium (1.26 mM CaCl2, 0.81 mM MgSO4, 0.44 mM KH2PO4, 142 mM KCl, 0.27 mM K2HPO4, 5.55 mM D-glucose, 1 mM Na3VO4, 20 mM Hepes pH 7.4). To monitor intracellular Ca^2+ variations, HL-1 cells were loaded with 5 μM Fluo-4 FF AM (Molecular Probes) in HBS Na (Sigma) for 30 min before the media was replaced with HBS KV. […] Calpain (CAPN) Activity Assay: […] HL-1 cells were grown in 24-well plates and incubated for 30 min in HBS Na (Sigma) with 25 μM Suc-LLVY-AMC (SEQ ID NO: 81) and 0.01% pluronic F127 (Molecular Probes) before treatment protocols. […] CAPN activity was inhibited via the addition of either calpeptin (Tocris) or PD150606 (Calbiochem) in the incubation medium.

The test system of test [4] is HL-1 cells. Kind of test: Cell viability assay (LDH release) in HL-1 cells under Ca2+ overload. It is filed as cell-based, mouse. As for the experimental part:
Calcium (Ca^2+) Overload Protocol: Rapid and sustained intracellular Ca^2+ overload was obtained by adding the Ca^2+-ionophore, calcimycin (1 μM), to HL-1 cells incubated for 10 min in HBS KV medium (1.26 mM CaCl2, 0.81 mM MgSO4, 0.44 mM KH2PO4, 142 mM KCl, 0.27 mM K2HPO4, 5.55 mM D-glucose, 1 mM Na3VO4, 20 mM Hepes pH 7.4). To monitor intracellular Ca^2+ variations, HL-1 cells were loaded with 5 μM Fluo-4 FF AM (Molecular Probes) in HBS Na (Sigma) for 30 min before the media was replaced with HBS KV. […] Cell Viability Assay: HL-1 plasma membrane integrity was assessed by measuring lactate dehydrogenase (LDH) release in the culture supernatant. An enzymatic assay evaluated LDH activity. Samples of the cell-free culture supernatant were collected at indicated times in Figures/Figure Legends, while cells were lysed in 1% (w/v) Triton X-100 at the end of each experiment to estimate the remaining cellular content of LDH. The LDH activity at each time point was expressed as a percentage of total LDH activity.
Background: LDH leaks from cells whose membrane has failed.

For test [5], the system named is HL-1 cells. Kind of test: Mitochondrial membrane potential (JC-1) assay in HL-1 cells. The following applies: Calcimycin 1 μM in HBS KV medium. It is filed as cell-based, mouse. As for the experimental part:
Calcium (Ca^2+) Overload Protocol: Rapid and sustained intracellular Ca^2+ overload was obtained by adding the Ca^2+-ionophore, calcimycin (1 μM), to HL-1 cells incubated for 10 min in HBS KV medium (1.26 mM CaCl2, 0.81 mM MgSO4, 0.44 mM KH2PO4, 142 mM KCl, 0.27 mM K2HPO4, 5.55 mM D-glucose, 1 mM Na3VO4, 20 mM Hepes pH 7.4). To monitor intracellular Ca^2+ variations, HL-1 cells were loaded with 5 μM Fluo-4 FF AM (Molecular Probes) in HBS Na (Sigma) for 30 min before the media was replaced with HBS KV. […] Mitochondrial Membrane Potential (MMP) Assay: MMP was determined using the potentiometric probe, JC-1. JC-1 (Molecular Probes) is a cationic carbocyanine dye that selectively accumulates in polarized mitochondria, where it forms red fluorescent aggregates (excitation 485/emission 590 nm). Upon mitochondrial depolarization, JC-1 is released into the cytosol, whereas a monomer emits green fluorescence (excitation 485 nm/emission 520 nm). Therefore, MMP variations were monitored as the ratio of fluorescent emissions at 590/520 nm using a fluorimeter plate reader (Fluoroskan Ascent Labsystem). HL-1 cells were incubated with JC-1 (1.5 μM) for 30 min at 37° C. in HBS Na before treatment protocols.

Test [6] deals with HL-1 cells. The test can be described thus: Intracellular Ca2+ (Fluo4 FF fluorescence) in HL-1 cells. It is filed as cell-based, mouse. The following applies: Calcimycin 1 μM in HBS KV medium. How it is done: (§1) Calcium (Ca^2+) Overload Protocol: Rapid and sustained intracellular Ca^2+ overload was obtained by adding the Ca^2+-ionophore, calcimycin (1 μM), to HL-1 cells incubated for 10 min in HBS KV medium (1.26 mM CaCl2, 0.81 mM MgSO4, 0.44 mM KH2PO4, 142 mM KCl, 0.27 mM K2HPO4, 5.55 mM D-glucose, 1 mM Na3VO4, 20 mM Hepes pH 7.4). To monitor intracellular Ca^2+ variations, HL-1 cells were loaded with 5 μM Fluo-4 FF AM (Molecular Probes) in HBS Na (Sigma) for 30 min before the media was replaced with HBS KV.

The target in test [7] is T2, CAPN1. Kind of test: Western blot of CAPN1 in purified mitochondria from HL-1 cells under Ca2+ overload. It counts as cell-based. The conditions noted are these: Ca2+ overload (HBS KVC), calpeptin 50 μM, PD150606 10 μM. How it is done:
as §1, with “KV. The fluorescence was recorded using a fluorimeter plate reader (Fluoroskan Ascent Labsystem) at wavelength settings of 485/530 nm for excitation/emission, respectively.” for “KV.”
Mitochondria Isolation Protocol: Mitochondria were isolated from HL-1 cells in percoll density gradient. Briefly, 30×10^6 adherent cells were harvested with Trypsin/EDTA, centrifuged at 500×g for 10 min, washed in buffer A (100 mM sucrose, 1 mM EGTA, 20 mM MOPS, pH 7.4, and 1 mg/mL BSA) before cell disruption with a Dounce homogenizer. The suspension was centrifuged twice at 500× g for 5 min and the resulting supernatant at 10,000×g for 10 min at 4° C. The pellet was re-suspended in buffer B (300 mM sucrose, 1 mM EGTA, 20 mM MOPS pH 7.4, 1 mg/mL BSA), and the homogenate was layered on a two-phase (25% and 40%) percoll density gradient. […]
For orientation: Immunoblotting shows a protein as a band on a membrane.

[8] abbreviates: Ca2+ overload in HBS KV medium, 5 mM EGTA in incubation media.
[9] abbreviates: Calcimycin 1 μM in HBS KV medium, dose-dependent response.

T1 sequence (P62937 whole entry, species assumed): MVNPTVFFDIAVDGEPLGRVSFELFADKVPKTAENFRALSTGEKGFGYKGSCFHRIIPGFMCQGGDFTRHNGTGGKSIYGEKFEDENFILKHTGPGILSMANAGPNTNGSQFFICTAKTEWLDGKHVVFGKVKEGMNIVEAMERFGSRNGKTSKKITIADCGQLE

What is called Kd is the equilibrium constant for the complex coming apart. As to `CC[C@H](C)[C@@H]1NC(=O)[C@@H](N)CSSC[C@@H](C(N)=O)NC(=O)[C@H](C(C)C)NC(=O)[C@H](CCCCNC(=N)N)NC(=O)[C@H](CCCNC(=N)N)NC(=O)CNC(=O)[C@H](CC(=O)O)NC(=O)[C@H](CCCCN)NC(=O)[C@H](CC(C)C)NC(=O)[C@H](CCCCN)NC1=O` [X8: hR] (H-CIKLKDGR[hArg]VC-NH2; disulfide 1-11), the dissociation constant (Kd) on PPIA [1] is greater than 1 mM.
Same read-out and setting: as for `CC[C@H](C)[C@@H]1NC(=O)[C@@H](N)CSSC[C@@H](C(N)=O)NC(=O)[C@H](C(C)C)NC(=O)[C@H](CCCCN)NC(=O)[C@H](CCCNC(=N)N)NC(=O)CNC(=O)[C@H](CC(=O)O)NC(=O)[C@H](CCCCNC(=N)N)NC(=O)[C@H](CC(C)C)NC(=O)[C@H](CCCCN)NC1=O` [X4: hR] (H-CIKL[hArg]DGRKVC-NH2; disulfide 1-11), the figure is greater than 1 mM.
Consider “QSVGVSSGKLLIKLKDGRKVETDHI [AIF (370-394), Linear peptide, 25 amino acids long]”, for which the Kd on PPIA [2] is 12 µM.
For `O=C(O)CN(CCOCCOCCN(CC(=O)O)CC(=O)O)CC(=O)O` [EGTA], at CAPN1 [3] (setting [8]), the CAPN1 activation result is “attenuated”. Besides, the “cell death (LDH release)” value with HL-1 cells [4] (setting [8]) is “attenuated”.
Take `O=C(O)/C(S)=C/c1ccc(I)cc1` [PD150606]: the “reduction in Ca2+ overload-induced CAPN1 substrate hydrolysis” value at CAPN1 [3] (setting [9]) is roughly 60%. Moreover, the “reduction in cell death (LDH release)” value in the test with HL-1 cells [4] (setting [9]) is reported as roughly 15%. For the same compound, the “Ca2+ overload-induced decrease in mitochondrial membrane potential (MMP)” value with HL-1 cells [5] is recorded as “reduced ability to restore MMP”. Besides, the “kinetics of cytosolic Ca2+ accumulation” value in the test with HL-1 cells [6] is listed as “neither of them had an impact”. For the same compound, the “mitochondrial CAPN1 translocation” value at CAPN1 [7] is recorded as “failed to prevent”.
